# Compound: CCCS(=O)(=O)Nc1ccc(F)c(C(=O)c2c[nH]c3ncc(-c4ccc(Cl)cc4)cc23)c1F [Vemurafenib] + Cc1nc(NC(=O)N2CCC[C@H]2C(N)=O)sc1-c1ccnc(C(C)(C)C(F)(F)F)c1 [Alpelisib] (partner 2 µM)
# Experiment: relative viability (nuclei count vs DMSO), 5 days (fraction); higher = more cells survive
# Conditions: first compound 1 µM
# Summary of the method: (§1)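 Relative viability was taken as the ratio of nuclei in treated wells to nuclei in vehicle wells. Lung cancer cell lines in 1536-well plates received compounds by pin tool one day after seeding, either one drug alone or a fixed anchor-drug dose plus five library-drug doses (not always all listed) in √10 steps. Nuclei were counted on 4× images after 5 days of treatment, and values are medians of duplicate plates.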
row,Cell Line,relative viability
1,NCI-H1792,0.693

# Compound: Cc1nc(NC(=O)N2CCC[C@H]2C(N)=O)sc1-c1ccnc(C(C)(C)C(F)(F)F)c1 [Alpelisib] + C[C@]1(O)C[C@@H](c2nc(-c3ccc4ccc(-c5ccccc5)nc4c3)c3c(N)nccn32)C1 [Linsitinib] (partner 1 µM)
# Experiment: as above
# Conditions: first compound 0.04 µM
# Summary of the method: as §1
row,Cell Line,relative viability
1,NCI-H2126,0.682
2,EPLC-272H,1.1
3,NCI-H1755,1.01
4,NCI-H2023,0.612
5,NCI-H1793,0.596
6,H3255,0.979
7,NCI-H1975,0.96
8,PC-14,0.91
9,NCI-H1299,0.975
10,NCI-H1437,1.06
11,HOP-62,0.801
12,HCC-44,0.707
13,BEN,0.859
14,LOU-NH91,0.989
15,NCI-H661,0.58
16,NCI-H1651,0.953
17,PC-3 [JPC-3],0.948

row,Cell Line,relative viability
1,SW 1573,0.919
2,LK-2,0.385
3,NCI-H2405,1.07
4,NCI-H1703,0.899
5,NCI-H1993,0.732
6,NCI-H1355,0.762
7,HCC-366,0.716
8,NCI-H1915,1.11
9,NCI-H838,0.969
10,A-427,1.11
11,NCI-H2009,1.2
12,ABC-1,0.716
13,EKVX,0.923
14,NCI-H2087,0.853
15,NCI-H1563,1.18
16,NCI-H1792,0.505

# Same assay, conditions: first compound 0.1265 µM
row,Cell Line,relative viability
1,NCI-H2126,0.716
2,EPLC-272H,0.977
3,NCI-H1755,0.941
4,NCI-H2023,0.634
5,NCI-H1793,1.19
6,H3255,1.01
7,NCI-H1975,0.915
8,PC-14,0.894
9,NCI-H1299,0.984
10,NCI-H1437,1.02
11,HOP-62,0.959
12,HCC-44,0.7
13,BEN,0.857
14,LOU-NH91,0.828
15,NCI-H661,0.573
16,NCI-H1651,0.932
17,PC-3 [JPC-3],0.974

row,Cell Line,relative viability
1,SW 1573,0.826
2,LK-2,0.574
3,NCI-H2405,0.935
4,NCI-H1703,0.631
5,NCI-H1993,0.737
6,NCI-H1355,0.837
7,HCC-366,0.519
8,NCI-H1915,1.1
9,NCI-H838,1.02
10,A-427,1.14
11,NCI-H2009,1.12
12,ABC-1,0.695
13,EKVX,0.941
14,NCI-H2087,0.979
15,NCI-H1563,1.19
16,NCI-H1792,0.566

# Same assay, conditions: first compound 0.4 µM
row,Cell Line,relative viability
1,NCI-H2126,0.66
2,EPLC-272H,1.34
3,NCI-H1755,1.03
4,NCI-H2023,0.628
5,NCI-H1793,0.997
6,H3255,1.07
7,NCI-H1975,0.91
8,PC-14,0.98
9,NCI-H1299,1.14
10,NCI-H1437,1.05
11,HOP-62,1.16
12,HCC-44,0.738
13,BEN,1.14
14,LOU-NH91,0.782
15,NCI-H661,0.613
16,NCI-H1651,0.963
17,PC-3 [JPC-3],1.03

row,Cell Line,relative viability
1,SW 1573,0.725
2,LK-2,0.549
3,NCI-H2405,1.02
4,NCI-H1703,0.661
5,NCI-H1993,0.762
6,NCI-H1355,0.828
7,HCC-366,0.375
8,NCI-H1915,1.17
9,NCI-H838,0.983
10,A-427,1.22
11,NCI-H2009,1.27
12,ABC-1,0.86
13,EKVX,1.11
14,NCI-H2087,1.05
15,NCI-H1563,1.2
16,NCI-H1792,0.619

# Same assay, conditions: first compound 1.265 µM
row,Cell Line,relative viability
1,NCI-H2126,0.698
2,EPLC-272H,0.937
3,NCI-H1755,0.978
4,NCI-H2023,0.574
5,NCI-H1793,0.692
6,H3255,0.715
7,NCI-H1975,0.67
8,PC-14,0.856
9,NCI-H1299,0.866
10,NCI-H1437,0.827
11,HOP-62,0.976
12,HCC-44,0.582
13,BEN,0.828
14,LOU-NH91,0.735
15,NCI-H661,0.439
16,NCI-H1651,0.932
17,PC-3 [JPC-3],0.883

row,Cell Line,relative viability
1,SW 1573,0.685
2,LK-2,0.46
3,NCI-H2405,0.781
4,NCI-H1703,0.438
5,NCI-H1993,0.702
6,NCI-H1355,0.774
7,HCC-366,0.327
8,NCI-H1915,1.02
9,NCI-H838,0.807
10,A-427,1.01
11,NCI-H2009,1.19
12,ABC-1,0.847
13,EKVX,0.901
14,NCI-H2087,0.803
15,NCI-H1563,1.06
16,NCI-H1792,0.539

# Same assay, conditions: first compound 4 µM
row,Cell Line,relative viability
1,NCI-H2126,0.63
2,EPLC-272H,0.893
3,NCI-H1755,0.764
4,NCI-H2023,0.444
5,NCI-H1793,0.525
6,H3255,0.794
7,NCI-H1975,0.548
8,PC-14,0.816
9,NCI-H1299,0.843
10,NCI-H1437,0.844
11,HOP-62,0.922
12,HCC-44,0.543
13,BEN,0.959
14,LOU-NH91,0.653
15,NCI-H661,0.458
16,NCI-H1651,0.956
17,PC-3 [JPC-3],0.933

row,Cell Line,relative viability
1,SW 1573,0.547
2,LK-2,0.687
3,NCI-H2405,0.847
4,NCI-H1703,0.354
5,NCI-H1993,0.749
6,NCI-H1355,0.722
7,HCC-366,0.152
8,NCI-H1915,1.08
9,NCI-H838,0.956
10,A-427,1.09
11,NCI-H2009,1.12
12,ABC-1,0.709
13,EKVX,0.821
14,NCI-H2087,1.07
15,NCI-H1563,1.19
16,NCI-H1792,0.38

# Compound: CCCS(=O)(=O)Nc1ccc(F)c(C(=O)c2c[nH]c3ncc(-c4ccc(Cl)cc4)cc23)c1F [Vemurafenib] + O=C(c1cc(Cc2n[nH]c(=O)c3ccccc23)ccc1F)N1CCN(C(=O)C2CC2)CC1 [Olaparib] (partner 8 µM)
# Experiment: as above
# Conditions: first compound 0.03162 µM
# Summary of the method: as §1
row,Cell Line,relative viability
1,NCI-H2126,0.835
2,EPLC-272H,0.717
3,NCI-H1755,0.806
4,NCI-H2023,0.463
5,NCI-H1650,0.677
6,NCI-H1793,0.778
7,NCI-H2342,0.401
8,H3255,0.497
9,NCI-H1975,0.728
10,PC-14,0.292
11,NCI-H1299,0.906
12,NCI-H1437,0.629
13,HOP-62,0.38
14,HCC-44,0.985
15,BEN,0.971
16,LOU-NH91,0.876
17,NCI-H661,0.686
18,NCI-H1651,0.167
19,SW 1573,0.435

row,Cell Line,relative viability
1,LK-2,0.618
2,NCI-H2405,0.857
3,NCI-H1703,0.432
4,NCI-H1993,0.976
5,ChaGo-K-1,0.404
6,NCI-H1355,0.722
7,HCC-366,0.343
8,NCI-H1915,0.263
9,NCI-H838,0.746
10,A-427,0.71
11,NCI-H2009,0.61
12,ABC-1,1.12
13,EKVX,0.891
14,NCI-H2087,0.506
15,NCI-H2170,0.54
16,NCI-H522,0.667
17,NCI-H1792,0.404
18,SW 900,0.812

# Same assay, conditions: first compound 0.1 µM
row,Cell Line,relative viability
1,NCI-H2126,0.956
2,EPLC-272H,0.742
3,NCI-H1755,0.898
4,NCI-H2023,0.42
5,NCI-H1650,0.626
6,NCI-H1793,0.497
7,NCI-H2342,0.429
8,NCI-H1975,0.755
9,NCI-H1299,0.954
10,NCI-H1437,0.589
11,HOP-62,0.388
12,HCC-44,0.992
13,BEN,0.992
14,LOU-NH91,0.671
15,NCI-H661,0.752
16,NCI-H1651,0.203
17,SW 1573,0.414

row,Cell Line,relative viability
1,LK-2,0.633
2,NCI-H2405,0.893
3,NCI-H1703,0.307
4,NCI-H1648,0.434
5,ChaGo-K-1,0.4
6,NCI-H1355,0.671
7,HCC-366,0.304
8,NCI-H1915,0.25
9,NCI-H838,0.764
10,A-427,0.663
11,NCI-H2009,0.661
12,ABC-1,0.8
13,NCI-H2087,0.588
14,NCI-H522,0.543
15,NCI-H1792,0.45
16,SW 900,0.607

# Same assay, conditions: first compound 0.3162 µM
row,Cell Line,relative viability
1,NCI-H2126,0.92
2,EPLC-272H,0.834
3,NCI-H1755,0.907
4,NCI-H2023,0.483
5,NCI-H1650,0.844
6,NCI-H1793,0.879
7,NCI-H2342,0.608
8,H3255,0.519
9,NCI-H1975,0.727
10,PC-14,0.304
11,NCI-H1299,0.863
12,NCI-H1437,0.615
13,HOP-62,0.412
14,HCC-44,0.992
15,BEN,0.653
16,LOU-NH91,0.743
17,NCI-H661,0.769
18,NCI-H1651,0.193

row,Cell Line,relative viability
1,PC-3 [JPC-3],1.05
2,SW 1573,0.577
3,LK-2,0.644
4,NCI-H1703,0.454
5,NCI-H1648,0.927
6,NCI-H1993,1.26
7,ChaGo-K-1,0.49
8,NCI-H1355,0.828
9,NCI-H1915,0.242
10,NCI-H838,0.697
11,NCI-H2009,0.612
12,ABC-1,0.6
13,EKVX,0.898
14,NCI-H2087,0.504
15,NCI-H2170,0.624
16,NCI-H522,0.669
17,SW 900,0.939

# Same assay, conditions: first compound 1 µM
row,Cell Line,relative viability
1,NCI-H2126,0.922
2,EPLC-272H,0.867
3,NCI-H1755,0.8
4,NCI-H2023,0.479
5,NCI-H1650,0.791
6,NCI-H1793,1.06
7,NCI-H2342,0.354
8,H3255,0.556
9,NCI-H1975,0.793
10,PC-14,0.292
11,NCI-H1299,0.792
12,NCI-H1437,0.637
13,HOP-62,0.438
14,HCC-44,0.99
15,BEN,1.06
16,LOU-NH91,0.894
17,NCI-H661,0.709
18,NCI-H1651,0.169
19,PC-3 [JPC-3],1.25
20,SW 1573,0.531

row,Cell Line,relative viability
1,LK-2,0.417
2,NCI-H2405,0.937
3,NCI-H1703,0.515
4,NCI-H1648,0.761
5,NCI-H1993,1.12
6,ChaGo-K-1,0.382
7,NCI-H1355,0.74
8,HCC-366,0.388
9,NCI-H1915,0.244
10,NCI-H838,0.821
11,A-427,0.701
12,NCI-H2009,0.652
13,ABC-1,0.93
14,EKVX,0.911
15,NCI-H2087,0.47
16,NCI-H2170,0.553
17,NCI-H522,0.725
18,NCI-H1792,0.441
19,SW 900,0.994

# From the supplement of paper PMC10307832
